{
  "source": "patent US9546151B2",
  "about": "“VMAT inhibitory compounds” (Oregon Health & Science University, priority 2014, dated 2017)",
  "key": {"[1]": {"target": "T1, VMAT2 (Homo sapiens, UniProt Q05940)", "T1 sequence (Q05940 whole entry, species assumed)": "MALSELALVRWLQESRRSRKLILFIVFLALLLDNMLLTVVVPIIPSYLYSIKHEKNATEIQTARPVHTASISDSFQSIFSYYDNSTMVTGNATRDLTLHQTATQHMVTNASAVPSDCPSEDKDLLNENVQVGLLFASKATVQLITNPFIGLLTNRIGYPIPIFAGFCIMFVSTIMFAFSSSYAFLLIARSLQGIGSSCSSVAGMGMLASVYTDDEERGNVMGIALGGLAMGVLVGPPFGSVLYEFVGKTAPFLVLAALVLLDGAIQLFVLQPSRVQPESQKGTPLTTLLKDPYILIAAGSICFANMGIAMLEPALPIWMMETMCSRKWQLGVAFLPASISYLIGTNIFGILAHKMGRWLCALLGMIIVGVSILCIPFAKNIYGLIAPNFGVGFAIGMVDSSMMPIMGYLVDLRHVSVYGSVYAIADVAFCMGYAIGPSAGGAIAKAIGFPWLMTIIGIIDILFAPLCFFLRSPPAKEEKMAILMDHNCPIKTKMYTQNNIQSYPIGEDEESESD", "details": "background statements; cited from earlier work"}, "[2]": {"target": "T1, VMAT2", "details": "high concentrations; cited from earlier work"}, "[3]": {"details": "base; cited from earlier work"}, "[4]": {"target": "T2, human 5HT2C receptor (Homo sapiens, UniProt P28335)", "T2 construct": "expressed in transfected cells; host or cells: HEK cells", "T2 sequence (P28335 33-458)": "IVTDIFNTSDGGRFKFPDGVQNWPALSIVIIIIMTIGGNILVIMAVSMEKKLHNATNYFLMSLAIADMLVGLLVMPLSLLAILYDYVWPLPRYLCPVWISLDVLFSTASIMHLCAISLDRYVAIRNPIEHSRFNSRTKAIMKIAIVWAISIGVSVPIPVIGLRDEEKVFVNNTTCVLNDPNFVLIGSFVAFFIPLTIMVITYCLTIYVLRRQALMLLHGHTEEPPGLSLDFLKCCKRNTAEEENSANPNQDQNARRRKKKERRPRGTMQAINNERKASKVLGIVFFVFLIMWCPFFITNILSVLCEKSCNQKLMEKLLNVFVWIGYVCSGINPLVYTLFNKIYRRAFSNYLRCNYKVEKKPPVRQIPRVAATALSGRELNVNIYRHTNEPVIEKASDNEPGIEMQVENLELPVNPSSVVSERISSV", "test": "h5HT2C receptors: [125I]DOI binding", "details": "read-out: Kd for [^125I] DOI at 5HT2C receptors; used in Cheng-Prusoff equation", "experimental": "The method was adapted from AR Knight et al, Naunyn-Schmeideberg's Arch Pharmacol 370, 114-123 (2004).\nMethod: Human embryonic kidney cells expressing the human 5HT2A receptor (HEK-h5HT2A) or human 5HT2C receptor (HEK-h5HT2C) were used. The cells were grown until confluent on 15 cm plates. Media was removed, cells were washed with phosphate-buffered saline (PBS), scraped into 2 ml PBS and frozen at −20° C. until needed. Cell suspension was thawed, 10 ml assay buffer (50 mM Tris, pH 7.4 at 37° C., with 0.1% ascorbic acid and 5 mM CaCl2) was added per plate of cells, and polytronned at setting 6 for 5 sec. The homogenate was centrifuged at 15,500 rpm for 20 min. To minimize the residual 5HT concentration, the pellet was resuspended in buffer, polytronned, and centrifuged as above. The final pellet was resuspended in 2 ml buffer/plate of cells.\nThe binding assay included 50 μl drug, 5HT or buffer, 50 μl cell homogenate, 50 μl [^125I]DOI (˜0.1 nM) and buffer in a final volume of 250 μl. Specific binding was defined as the difference between total binding and binding in the presence of 10 μM 5HT. The reaction was incubated for 1 hour at 37° C., and terminated by filtration through Wallac A filtermats presoaked in 0.05% polyethylenimine using a Tomtec 96-well harvester. Radioactivity remaining on filters was counted in a Wallac betaplate reader. IC50 values were calculated using GraphPad Prism. […]"}, "[5]": {"target": "T1, VMAT2", "details": "transfected cells; Miller et al 2004; cited from earlier work"}, "[6]": {"target": "DAT (Homo sapiens, UniProt Q01959)", "sequence (Q01959 whole entry, species assumed)": "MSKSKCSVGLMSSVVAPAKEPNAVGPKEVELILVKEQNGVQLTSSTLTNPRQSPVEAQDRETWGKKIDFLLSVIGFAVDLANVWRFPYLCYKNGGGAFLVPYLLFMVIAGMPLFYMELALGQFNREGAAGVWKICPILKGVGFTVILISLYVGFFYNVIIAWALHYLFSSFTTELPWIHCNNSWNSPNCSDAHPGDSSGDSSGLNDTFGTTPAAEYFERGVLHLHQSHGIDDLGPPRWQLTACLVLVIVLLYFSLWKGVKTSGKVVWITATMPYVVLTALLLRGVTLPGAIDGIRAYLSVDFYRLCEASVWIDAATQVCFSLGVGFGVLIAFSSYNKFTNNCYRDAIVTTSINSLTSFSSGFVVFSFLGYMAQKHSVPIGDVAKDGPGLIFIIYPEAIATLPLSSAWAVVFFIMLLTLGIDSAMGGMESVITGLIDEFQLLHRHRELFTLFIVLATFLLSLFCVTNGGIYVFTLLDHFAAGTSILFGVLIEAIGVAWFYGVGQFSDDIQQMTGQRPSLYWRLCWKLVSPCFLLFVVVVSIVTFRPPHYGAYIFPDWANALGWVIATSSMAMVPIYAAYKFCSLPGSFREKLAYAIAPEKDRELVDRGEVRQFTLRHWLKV", "details": "transfected cells; Miller et al 2004; cited from earlier work"}, "[7]": {"details": "rats, lever press; Harrod et al 2001; cited from earlier work"}},
  "data": [
    {"molecule": "O=C(c1ccc(F)cc1)C1CCN(CCn2c(=O)[nH]c3ccccc3c2=O)CC1", "note": "[Ketanserin]", "values": [
      {"measurement": "affinity for VMAT2 (in words)", "setting": "[1]", "result": "high affinity"}
    ]},
    {"molecule": "CN[C@@H](C)Cc1ccccc1", "note": "[MA, Methamphetamine]", "values": [
      {"measurement": "concentration for inhibition of [^3H]DTBZ binding", "setting": "[2]", "result": 1.2, "unit": "mM"},
      {"measurement": "pKa", "setting": "[3]", "result": 9.8}
    ]},
    {"molecule": "COc1cc(CC(C)N)c(OC)cc1I", "note": "(stereo not shown) [[^125I] DOI]", "values": [
      {"measurement": "Kd", "setting": "[4]", "result": 4.18, "unit": "nM"}
    ]},
    {"molecule": "CN1[C@@H](CC(=O)c2ccccc2)CCC[C@H]1C[C@H](O)c1ccccc1", "note": "[lobeline, 2-((2R,6S)-6-((S)-2-Hydroxy-2-phenylethyl)-1-methylpiperidin-2-yl)-1-phenylethanone]", "values": [
      {"measurement": "affinity at VMAT2", "setting": "[5]", "result": 4.3, "unit": "µM"},
      {"measurement": "affinity at the DAT", "setting": "[6]", "result": 5.4, "unit": "µM"},
      {"measurement": "responding for intravenous MA or sucrose after pretreatment", "setting": "[7]", "result": "decreased responding to both acutely"}
    ]}
  ]
}
